Results from publication PMC4580987, “Catalytic site inhibition of insulin-degrading enzyme by a small molecule induces glucose intolerance in mice” (Nature Communications, 2015).
Values after ≈ are worked out from the molar mass of the structure shown.

How the values were obtained:
[1] = Solubility in PBS pH 7.4; type: physicochemical; conditions: aqueous buffer, kinetic from dmso stock
Protocol: Ten microlitre of a 10 mM solution in DMSO of the compound are diluted either in 490 μl of PBS pH 7.4 or in organic solvent MeOH in a 700 μl-microtube (in triplicate). The tubes are gently shaken 24 h at room temperature, then centrifuged for 5 min at 4,000 r.p.m. The mixtures are filtered over 0.45 μm filters (Millex-LH Millipore). Twenty microlitre of sample are diluted in 180 μl of MeOH. The solubility is determined by the ratio of mass signal area PBS/ organic solvent. Forty microlitre of a 10 mM solution in DMSO of the compound were diluted in 1.960 ml of a 1/1 octanol /PBS at pH 7.4 mixture. The mixture was gently shaken 2 h at room temperature. Twenty microlitre of each phase was diluted in 480 μl of MeOH and analysed by LC–MS. Each compound is tested in triplicate. Log D was determined as the logarithm of the ratio of concentration of product in octanol and PBS respectively, determined by mass signals.

[2] = Stability in human plasma; type: in vitro ADME; conditions: both sexes, read-out: Plasma stability h (t1/2)
Protocol: Incubations were performed in duplicate in Eppendorf tubes. The plasma (mouse plasma, rat plasma (mixed gender), human (mixed gender, all lithium heparine, from Sera Laboratories International) or cell culture medium (differenciation medium: DMEM (Life Technologies, Ref 41965), 0.4 % gentamicine, 10 % FCS (Lonza, Ref DE14-801F) or proliferation medium: DMEM (Life Technologies, Ref 41965), 0.4 % gentamicine, 2 % horse serum (Gbco, Ref16050) was pre-incubated 5 min at 37 °C before the addition of test compounds to a final concentration of 10 μM (1% DMSO maximum). At the defined time points, 50 μl from each tube were removed to another tube containing 450 μl of cold CH3CN+ internal standard (1 μM). After centrifugation (10 min at 10,000 r.p.m.), supernatants are analysed. The degradation half-life (t1/2) values were calculated as t1/2=0.693/k where k is the first-order degradation rate constant. The degradation rate constant (k) was estimated by one-phase exponential decay nonlinear regression analysis of the degradation time course data using Xlfit software (version 2.1.2 or higher) from IDBS.Ltd.

[3] = tested on: C57BL/6J mice; assay: Intraperitoneal glucose tolerance test (IPGTT); type: in vivo, mouse; conditions: 50 mg kg^−1 ip, intraperitoneal glucose 1.5 g kg^−1
Protocol: OGTT and IPGTT were performed on 11 to 16 week-old male or female mice (n=4–7 per experimental group). C57BL/6J mice were purchased from Charles River Laboratories (France), Stock no. 000664. C57BL/6J Ide−/− mice were obtained from Guenette[20] and bred in the animal facility of INSERM U1151. WT C57BL/6J mice of the same genetic background were bred in the same animal facility in parallel. NOD Ide−/− mice were generated by backcrossing C57BL/6J Ide−/− mice with NOD wt mice bred in the animal facility of INSERM U1151 and maintained in this facility together with WT NOD mice. Normoglycemic WT and Ide−/− female NOD mice aged 14 weeks were used for OGTTs. Following a 6 h fasting period, a small tail cut was made, basal blood glucose was determined. […] Fifteen minutes later, blood glucose concentrations were measured before and after (up to 120 min, as shown) oral (2 g kg^−1 or 3 g kg^−1, as shown) or intraperitoneal (1.5 g kg^−1) glucose administration. […] Blood glucose levels were determined using an Accu-Check glucometer (Roche Diagnostics). Areas under the curves (AUC) for OGTT and IPGTT were calculated to evaluate glucose tolerance. Plasma insulin concentrations were measured by ELISA (cat. no. 10-1247-01,Mercodia) in blood samples collected 15 min before and 15 and 90 min relative to oral glucose injection. […]

SMILES: O=C(C[C@@H](Cc1ccc2ccccc2c1)n1cc(CNC(=O)c2ccc(F)cc2)nn1)NO [Compound 1]
- solubility at 24 h [1]: 58 µM (≈ 26 µg/mL)
- half-life at 10 μM [2]: > 1440 min
- plasma glucose / glucose tolerance in IPGTT [3]: Impairs glucose tolerance in IPGTT
